Test results reported in patent US5795885A, “Method of inhibiting profileration of cells by administering an aminosterol compound” (priority 1995, dated 1998).
Converted amounts (≈) assume the structure as drawn.

Legend:
P. aerug = test: antibiotic activity (MIC); format: cell-based
fasting blood glucose = fasting blood glucose in mice; format: in vivo, Male CD-1 mice; conditions: intravenous
Procedure: To study the effect of steroid administrator or the NHE responsible for secretion of insulin, several of the aminosterols from shark liver were administered to fasting mice. Male CD-1 mice were assigned to one of four treatment groups. Whole blood glucose was tested using glucometer (Lifescan Glucometer II and One Touch test strips). Statistical analysis was via one-way analysis of variance (ANOVA) followed by subsequent Bonferonni's t-test.

[1] = tested on: PHA-stimulated human lymphocytes; test: inhibition of mitogen (PHA)-stimulated growth of human T-cells; format: cell-based; conditions: Homo sapiens, Lymphocyte; 10 μg/ml; read-out: inhibition of PHA-stimulated human lymphocytes (% control)
Excerpt: Results are tabulated below.

[2] = tested on: Human ovarian carcinoma SKOV3; test: growth inhibition in vitro (Baker et al.); format: cell-based
Procedure: As set forth in Table 7 below, all malignant tumors evaluated in tissue culture, endothelial cells and vascular smooth muscle cells were sensitive to inhibition. Thus, compound 1436 has application in the control of growth factor dependent proliferation of many types of tissue.
Using the assay described above, the anticancer effects of compound 1437 against several cancer lines was assessed.

NHE1β = conditions: cited from earlier work
[3] = tested on: L1210 lymphoblastic leukemia; test: mouse model of L1210 leukemia; format: in vivo, C57B mice; conditions: by day 28
[4] = tested on: chick embryo vitelline capillaries; test: chick embryo vitelline capillary regression assay; format: in vivo; parameters: key to vitelline capillary regression: +: Vascular reactivity; 0: No vascular reactivity; +/-: Equivocal reactivity; conditions: for vitelline capillary regression: 60 minutes
Procedure: Using the chick embryo vitelline capillaries assay, compounds were tested for their ability to induce capillary regression. Each compound was applied in 0.1 ml of 15% Ficol 400 and PBS onto the embryo, and vascular regression was assessed after 60 minutes.
The 3-day chick embryo consists of an embryonic disc from which numerous vessels emerge and return, forming a "figure 8"-shaped structure--the embryo in the center with vascular loops extending outward over both poles. […] Following a lag period of around 15 minutes, the constriction of continuity between capillary and secondary vessels, generally on the "venous" side, was observed. Continued pulsatile blood flow progressed, resulting in a "swelling" of the blind tube, followed by a pinching off of the remaining connection and formation of an enclosed vascular sac resembling a "blood island." This process progressed until only the largest vessels remained intact.

mouse IV PK study, HPLC = conditions: in vivo
Procedure: To assess clearance, a mouse IV PK study was performed for compound 319 and squalamine. The compound was administered i.v. and blood samples were taken every 10 minutes. The concentration of the administered steroid was determined by HPLC analysis.

B16 melanoma = B16 melanoma growth in C57B mice; format: in vivo, mouse; conditions: subcutaneous administration (FIG. 6)
Procedure: The growth of B16 melanoma in C57B mice is dependent upon neovascularization.
Using the growth of B16 melanoma cells in C57B mice, a recognized model for the evaluation of inhibitors of angiogenesis on the growth of cancers, the effects of subcutaneous, intraperitoneal and oral administration of squalamine were evaluated.
Based on the idea that tumor growth involves both the clonal expansion of a malignant cell along with the development of a supporting vascular supply, a combination of compound 1436 with squalamine was tested to determine whether it would achieve a synergistic effect on solid tumor growth. This concept was evaluated in the B16 melanoma model.
Animals were implanted with B16 melanoma followed by treatment with compound 1436 or 1256 administered in a combined schedule or separately. […] Thus, a combination of these two compounds achieves a therapeutic benefit in tumors dependent on neovascularization that may prevent metastatic spread.

[5] = tested on: stage 59-60 Xenopus tadpoles
human melanoma = human melanoma growth time course and cell death (Baker et al.); format: cell-based

## COC(=O)CCC(C)[C@H]1CCC2C3C[C@@H](O)[C@H]4C[C@H](NCCCNCCCCNCCCN)CC[C@]4(C)C3CC[C@@]21C (some centres unmarked)
P. aerug
  MIC: 128 µg/mL (≈ 217 µM)

## COC(=O)CCC(C)[C@H]1CCC2C3C[C@@H](O)[C@H]4C[C@@H](NCCCNCCCCNCCCN)CC[C@]4(C)C3CC[C@@]21C (some centres unmarked)
P. aerug
  MIC: 32 µg/mL (≈ 54.2 µM)

## CC(CCC(=O)O)[C@H]1CCC2C3C[C@@H](O)[C@H]4C[C@@H](NCCCNCCCCNCCCN)CC[C@]4(C)C3CC[C@@]21C (some centres unmarked)
P. aerug
  MIC: 8 µg/mL (≈ 13.9 µM)

## CC(C)C(CO)(CC[C@@H](C)[C@H]1CC[C@H]2[C@@H]3[C@H](O)C[C@H]4C[C@@H](NCCCNCCCCN)CC[C@]4(C)[C@H]3CC[C@]12C)OS(=O)(=O)O (single isomer, unassigned) [Compound 1437]
Fasting blood glucose
  hyperglycemia: caused hyperglycemia in mice
[1]
  inhibition at 10 µg/mL: 10%
[2]
  anticancer activity: found to exhibit anticancer activity

## N=C(N)NC(=O)c1nc(Cl)c(N)nc1N [Amiloride, amiloride]
NHE1β
  inhibition of NHE1β: inhibited by high concentrations

## N.N.[Cl][Pt][Cl] [Cisplatin, cisplatin, reference compound]
[3]
  anemia: profound anemia

## C[C@H](CCC(=O)O)[C@H]1CC[C@H]2[C@@H]3CC[C@H]4C[C@@H](NCCCNCCCCN)CC[C@]4(C)[C@H]3CC[C@]12C [Compound 319]
[4]; 0.001 μg applied
  vitelline capillary regression: +/-
[4]; 0.01 μg applied
  vitelline capillary regression: +
[4]; 0.1 μg applied
  vitelline capillary regression: +
[4]; 1 μg applied
  vitelline capillary regression: +
[4]; 10 μg applied
  vitelline capillary regression: +
[4]; in vivo
  activity in vitelline capillary regression assay (in words): especially active
Mouse IV PK study, HPLC
  pharmacokinetic clearance compared with squalamine: more rapid pharmacokinetic clearance than squalamine
B16 melanoma
  control of B16 melanoma: control of B16 in C57B mice to an extent almost comparable to squalamine
[5]; squalamine at 10 μg/ml
  tadpole tail capillary occlusion: common vascular occlusive effect

## CC(C)CCC[C@@H](C)[C@H]1CC[C@H]2[C@@H]3CC[C@H]4C[C@@H](NCCCNCCCCNCCCN)CC[C@]4(C)[C@H]3CC[C@]12C [Compound 353]
[4]; 1 μg applied
  vitelline capillary regression: +/-
[4]; in vivo
  effect on chick embryo vitelline capillaries (in words): no effect on the chick embryo capillary bed
Human melanoma
  apoptotic cell death: apoptotic cell death has been induced
Human melanoma; FIG. 17A
  effect on growth of melanoma (time course): most pronounced over 48 hours, with less of an effect noted within the first 12 hours of incubation
[5]; tadpole assay
  tadpole response similar to compound 1436: produce effects like those produced by compound 1436

## COC(=O)CCC(C)[C@H]1CCC2C3CC[C@H]4C[C@H](NCCCNCCCCNCCCN)CC[C@]4(C)C3CC[C@@]21C (some centres unmarked) [drawing 74]
P. aerug
  MIC: 64 µg/mL (≈ 111 µM)
